Test results taken from publication PMC6764212 (ACS Central Science, 2019).
Like-named read-outs stand apart in the source and are kept apart here.

Columns and labels:
GABAAR(α1/β3/γ2) [1] = target: T1, GABAAR(α1/β3/γ2) (Homo sapiens, UniProt P14867+P18507+P28472); assay: Ligand detection / high-throughput screening by fluorescence change ratio; assay type: binding; conditions: for assignment of hit compound from the screening: third and fourth screening, LOPAC1280, 10 μM
GABAARs = conditions: cited from earlier work
GABAAR(α1/β3/γ2) [2] = target: T1, GABAAR(α1/β3/γ2); assay: Dissociation constant of PAM at fixed 10 μM GABA; assay type: binding
GABAAR(α1/β3/γ2) [3] = target: T1, GABAAR(α1/β3/γ2); assay: Whole-cell patch-clamp electrophysiology in GABAAR-transfected HEK293T cells; assay type: cell-based; conditions: for chloride currents in the absence of GABA at high concentrations: 100 μM for CGP-7930 and CGP-13501, 25 μM for vinpocetine, Retro-2 and YC-1
GABAAR(α1/β3/γ2) [4] = target: T1, GABAAR(α1/β3/γ2); assay type: binding

Compound	assignment of hit compound from the screening (GABAAR(α1/β3/γ2) [1])	fluorescence change (ΔF/F0) upon ligand addition in the absence of GABA (GABAAR(α1/β3/γ2) [1])	fluorescence change (ΔF/F0) upon ligand addition in the presence of GABA (GABAAR(α1/β3/γ2) [1])	Kd (GABAAR(α1/β3/γ2) [2])	further results
CC1=C(C)C(=O)C(CCCCC#CCCCC#CCO)=C(C)C1=O [AA-861]	PAM candidates				
CCOC(=O)c1cncn1[C@H](C)c1ccccc1 [etomidate]		negligible fluorescence change	pronounced fluorescent decrease		Kd (GABAARs; read-out: Kd of etomidate previously reported using live cells): 1.8 µM
CC(C)c1cccc(C(C)C)c1O [propofol]		negligible fluorescence change	pronounced fluorescent decrease	5.6 µM	Kd (GABAARs; read-out: Kd of propofol previously reported using live cells): 1.9 µM
picrotoxin		no effect on the fluorescence intensity	no effect on the fluorescence intensity		
CC(C)(CO)Cc1cc(C(C)(C)C)c(O)c(C(C)(C)C)c1 [CGP-7930, 2,6-Di-tert-butyl-4-(3-hydroxy-2,2-dimethyl-propyl)-phenol]	PAM candidates			13.1 µM	chloride currents in the absence of GABA at high concentrations (GABAAR(α1/β3/γ2) [3]; no GABA): increased the chloride currents
Cc1ccc(-c2nc3ccc(C)cn3c2CC(=O)N(C)C)cc1 [zolpidem]		negligible fluorescence change	pronounced fluorescent decrease		
CCOC(=O)C1=C[C@]2(CC)CCCN3CCc4c(n1c1ccccc41)[C@@H]32 [vinpocetine]	PAM candidates			1.4 µM	chloride currents in the absence of GABA at high concentrations (GABAAR(α1/β3/γ2) [3]; no GABA): increased the chloride currents; effect on GABA-induced chloride currents (GABAAR(α1/β3/γ2) [3]; [compound] = 3 μM, [GABA] = 30 μM, −60 mV): reversibly enhanced; direct activation of GABAARs at low concentrations (GABAAR(α1/β3/γ2) [3]; low concentrations (3 μM), no GABA): did not induce any direct activation of GABAARs
COc1ccc2c(c1OC)C(=O)O[C@@H]2[C@H]1c2cc3c(cc2CCN1C)OCO3 [hydrastine]	potential orthosteric ligands				
COc1ccc(-c2ccc(=N)n(CCCC(=O)O)n2)cc1 [gabazine]	potential orthosteric ligands	significant decrease	significant decrease		Kd (GABAAR(α1/β3/γ2) [4]): 0.214 µM; concentration at which the fluorescence decrease reached saturation (GABAAR(α1/β3/γ2) [4]; 100 nM Gzn-OG, CLSM image): approximately 10 μM
